System: MV-4-11 cells
Test: Gene expression microarray analysis (Affymetrix PrimeView) and GSEA
Assay type: cell-based, human
Set-up: RFU PODN (11730768_x_at) / Fold change /veh PODN (11730768_x_at) / RFU LINC00158 (11744669_a_at) / Fold change /veh LINC00158 (11744669_a_at) / RFU DUSP10 (11751237_a_at) / Fold change /veh DUSP10 (11751237_a_at) / RFU ID3 (11757404_x_at) / Fold change /veh ID3 (11757404_x_at) / RFU PLEKHG5 (11737974_s_at) / Fold change /veh PLEKHG5 (11737974_s_at) / RFU LRRC4B (11730491_at) / Fold change /veh LRRC4B (11730491_at) / RFU GIMAP4 (11747438_a_at) / Fold change /veh GIMAP4 (11747438_a_at) / RFU KRT8 (11758183_x_at) / Fold change /veh KRT8 (11758183_x_at) / RFU CNN1 (11734310_a_at) / Fold change /veh CNN1 (11734310_a_at) / RFU VPS37D (11726825_at) / Fold change /veh VPS37D (11726825_at) / RFU C10orf10 (11716522_x_at) / Fold change /veh C10orf10 (11716522_x_at) / RFU KIR2DL2 /// KIR2DL4 /// KIR2DL5A /// KIR2DL5B /// KIR2DS1 /// KIR2DS2 /// KIR2DS3 /// KIR2DS4 /// KIR3DL3 /// KIR3DL3 /// KIR3DS1 (11738374_at) / Fold change /veh KIR2DL2 /// KIR2DL4 /// KIR2DL5A /// KIR2DL5B /// KIR2DS1 /// KIR2DS2 /// KIR2DS3 /// KIR2DS4 /// KIR3DL3 /// KIR3DL3 /// KIR3DS1 (11738374_at) / RFU C1QL1 (11718748_at) / Fold change /veh C1QL1 (11718748_at) / RFU TMPRSS4 (11747572_a_at) / Fold change /veh TMPRSS4 (11747572_a_at) / RFU HAMP (11756126_x_at) / Fold change /veh HAMP (11756126_x_at) / RFU RNFT2 (11725882_a_at) / Fold change /veh RNFT2 (11725882_a_at) / RFU NR4A2 (11747474_a_at) / Fold change /veh NR4A2 (11747474_a_at) / RFU ABCC12 (11746883_a_at) / Fold change /veh ABCC12 (11746883_a_at) / RFU TMEM136 (11760407_x_at) / Fold change /veh TMEM136 (11760407_x_at) / RFU CLDN22 /// WWC2 (11732394_at) / Fold change /veh CLDN22 /// WWC2 (11732394_at) / RFU HLA-DPB1 (11760878_x_at) / Fold change /veh HLA-DPB1 (11760878_x_at) / RFU SPINT1 (11716480_a_at) / Fold change /veh SPINT1 (11716480_a_at) / RFU GAP43 (11754022_s_at) / Fold change /veh GAP43 (11754022_s_at) / RFU A4GNT (11735810_at) / Fold change /veh A4GNT (11735810_at) / RFU PRB3 (11715151_x_at) / Fold change /veh PRB3 (11715151_x_at) / RFU TUBB4B (11761932_at) / Fold change /veh TUBB4B (11761932_at) / RFU CAPN14 (11732068_a_at) / Fold change /veh CAPN14 (11732068_a_at) / RFU TMCC2 (11721928_a_at) / Fold change /veh TMCC2 (11721928_a_at) / RFU IRGQ (11745062_a_at) / Fold change /veh IRGQ (11745062_a_at) / RFU FAM174B (11720279_a_at) / Fold change /veh FAM174B (11720279_a_at) / RFU TMPRSS4 (11748680_a_at) / Fold change /veh TMPRSS4 (11748680_a_at) / RFU FAM212B (11763350_a_at) / Fold change /veh FAM212B (11763350_a_at) / RFU PLEKHG5 (11743358_a_at) / Fold change /veh PLEKHG5 (11743358_a_at) / RFU ZSCAN30 (11745921_a_at) / Fold change /veh ZSCAN30 (11745921_a_at) / RFU CMKLR1 (11741424_a_at) / Fold change /veh CMKLR1 (11741424_a_at) / RFU LOC101060620 /// MAPK8IP1 (11723275_at) / Fold change /veh LOC101060620 /// MAPK8IP1 (11723275_at) / RFU SPTSSB (11747773_x_at) / Fold change /veh SPTSSB (11747773_x_at) / RFU PRSS12 (11739890_at) / Fold change /veh PRSS12 (11739890_at) / RFU BIN1 (11741810_x_at) / Fold change /veh BIN1 (11741810_x_at) / RFU WNT11 (11732464_a_at) / Fold change /veh WNT11 (11732464_a_at) / RFU C10orf10 (11716521_a_at) / Fold change /veh C10orf10 (11716521_a_at) / RFU C5orf56 (11738089_at) / Fold change /veh C5orf56 (11738089_at) / RFU CYB561 (11721691_x_at) / Fold change /veh CYB561 (11721691_x_at) / RFU ANKRD19P (11752326_a_at) / Fold change /veh ANKRD19P (11752326_a_at) / RFU OR2T12 /// OR2T33 /// OR2T8 (11738714_s_at) / Fold change /veh OR2T12 /// OR2T33 /// OR2T8 (11738714_s_at) / RFU VCAN (11748164_a_at) / Fold change /veh VCAN (11748164_a_at) / RFU JSRP1 (11732532_at) / Fold change /veh JSRP1 (11732532_at) / RFU KRTAP10-11 (11738290_x_at) / Fold change /veh KRTAP10-11 (11738290_x_at) / RFU MYO3A (11730013_a_at) / Fold change /veh MYO3A (11730013_a_at) / RFU EBF3 (11725865_a_at) / Fold change /veh EBF3 (11725865_a_at) / RFU CAMK2N1 (11719241_x_at) / Fold change /veh CAMK2N1 (11719241_x_at) / RFU C5orf56 (11738088_a_at) / Fold change /veh C5orf56 (11738088_a_at) / RFU OLFML3 (11715873_a_at) / Fold change /veh OLFML3 (11715873_a_at) / RFU LOC100653217 /// NTM (11731650_a_at) / Fold change /veh LOC100653217 /// NTM (11731650_a_at) / RFU MAPK11 (11762145_a_at) / Fold change /veh MAPK11 (11762145_a_at) / RFU FIZ1 (11724087_x_at) / Fold change /veh FIZ1 (11724087_x_at) / RFU OASL (11726364_x_at) / Fold change /veh OASL (11726364_x_at) / RFU SOX15 (11748057_x_at) / Fold change /veh SOX15 (11748057_x_at) / RFU CD79A (11719716_a_at) / Fold change /veh CD79A (11719716_a_at) / RFU HIST1H1D (11736915_at) / Fold change /veh HIST1H1D (11736915_at) / RFU CASKIN2 (11723855_a_at) / Fold change /veh CASKIN2 (11723855_a_at) / RFU LOC730098 (11760151_x_at) / Fold change /veh LOC730098 (11760151_x_at) / RFU OR4N2 (11742367_at) / Fold change /veh OR4N2 (11742367_at) / RFU PRRT2 (11749266_a_at) / Fold change /veh PRRT2 (11749266_a_at) / RFU SNX32 (11753110_a_at) / Fold change /veh SNX32 (11753110_a_at) / RFU CDHR5 (11726645_a_at) / Fold change /veh CDHR5 (11726645_a_at) / RFU RCAN1 (11760418_a_at) / Fold change /veh RCAN1 (11760418_a_at) / RFU FAM167A (11723789_a_at) / Fold change /veh FAM167A (11723789_a_at) / RFU FAM26E (11764081_at) / Fold change /veh FAM26E (11764081_at) / RFU ISYNA1 (11749810_s_at) / Fold change /veh ISYNA1 (11749810_s_at) / RFU ACY1 (11761880_at) / Fold change /veh ACY1 (11761880_at) / RFU 11764098_at / Fold change /veh 11764098_at / RFU SAMD14 (11745864_x_at) / Fold change /veh SAMD14 (11745864_x_at) / RFU NPB (11741838_a_at) / Fold change /veh NPB (11741838_a_at) / RFU TMPRSS6 (11731388_a_at) / Fold change /veh TMPRSS6 (11731388_a_at) / RFU KRTAP10-2 (11738614_at) / Fold change /veh KRTAP10-2 (11738614_at) / RFU ARHGAP8 /// PRR5-ARHGAP8 (11727945_x_at) / Fold change /veh ARHGAP8 /// PRR5-ARHGAP8 (11727945_x_at) / RFU KRTAP5-7 /// NADSYN1 (11734609_at) / Fold change /veh KRTAP5-7 /// NADSYN1 (11734609_at) / RFU RASL12 (11751679_a_at) / Fold change /veh RASL12 (11751679_a_at) / RFU CDKN2B (11736163_a_at) / Fold change /veh CDKN2B (11736163_a_at) / RFU PRF1 (11729649_at) / Fold change /veh PRF1 (11729649_at) / RFU, ZNF638 /// ZNF638-IT1 / Fold change vs veh, ZNF638 /// ZNF638-IT1 / RFU, PANK3 / Fold change vs veh, PANK3 / RFU, SH3YL1 / Fold change vs veh, SH3YL1 / RFU, ZEB2 / Fold change vs veh, ZEB2 / RFU, NRIP1 / Fold change vs veh, NRIP1 / RFU, PTTG1IP / Fold change vs veh, PTTG1IP / RFU, CAPN2 / Fold change vs veh, CAPN2 / RFU, MED14 / Fold change vs veh, MED14 / RFU, SNORA58 / Fold change vs veh, SNORA58 / RFU, C1orf63 / Fold change vs veh, C1orf63 / RFU, LRRFIP1 / Fold change vs veh, LRRFIP1 / RFU, NDUFAF7 / Fold change vs veh, NDUFAF7 / RFU, SLC12A2 / Fold change vs veh, SLC12A2 / RFU, IBTK / Fold change vs veh, IBTK / RFU, ESF1 / Fold change vs veh, ESF1 / Fold change vs veh, TMEM50B / RFU, TAOK1 / Fold change vs veh, TAOK1 / RFU, ACBD3 / Fold change vs veh, ACBD3 / RFU, TMA16 / Fold change vs veh, TMA16 / RFU, RWDD3 / Fold change vs veh, RWDD3 / RFU, BCAT1 / Fold change vs veh, BCAT1 / RFU, EDEM3 / Fold change vs veh, EDEM3 / RFU, TMEM33 / Fold change vs veh, TMEM33 / RFU, WDR75 / Fold change vs veh, WDR75 / RFU, AHCTF1 / Fold change vs veh, AHCTF1 / RFU, TFRC / Fold change vs veh, TFRC / RFU, ZDHHC17 / Fold change vs veh, ZDHHC17 / RFU, NOM1 / Fold change vs veh, NOM1 / RFU, ARL8B / Fold change vs veh, ARL8B / RFU, ZBTB11 / Fold change vs veh, ZBTB11 / RFU, TAMM41 / Fold change vs veh, TAMM41 / RFU, KIAA1704 /// LOC100996395 / Fold change vs veh, KIAA1704 /// LOC100996395 / RFU, ING1 / Fold change vs veh, ING1 / RFU, TRMT61B / Fold change vs veh, TRMT61B / RFU, FUBP3 / Fold change vs veh, FUBP3 / RFU, TP53 / Fold change vs veh, TP53 / RFU, TNKS2 / Fold change vs veh, TNKS2 / RFU, ZFP14 / Fold change vs veh, ZFP14 / RFU, ACTR2 / Fold change vs veh, ACTR2 / RFU, PPP3R1 / Fold change vs veh, PPP3R1 / RFU, PIK3R1 / Fold change vs veh, PIK3R1 / RFU, HNRNPA1 / Fold change vs veh, HNRNPA1 / RFU, RNF170 / Fold change vs veh, RNF170 / RFU, ZNF28 / Fold change vs veh, ZNF28 / RFU, RNGTT / Fold change vs veh, RNGTT / RFU, OGT / Fold change vs veh, OGT / RFU, BRD1 / Fold change vs veh, BRD1 / RFU, MARS / Fold change vs veh, MARS / RFU, ZNF655 / Fold change vs veh, ZNF655 / RFU, FAHD1 / Fold change vs veh, FAHD1 / RFU, BDP1 / Fold change vs veh, BDP1 / RFU, LRRCC1 / Fold change vs veh, LRRCC1 / RFU, ARID1A / Fold change vs veh, ARID1A / RFU, ZNF146 / Fold change vs veh, ZNF146 / RFU, ZNF330 / Fold change vs veh, ZNF330 / RFU, GPN3 / Fold change vs veh, GPN3 / RFU, C9orf123 / Fold change vs veh, C9orf123 / RFU, N4BP2L2 / Fold change vs veh, N4BP2L2 / RFU, ARFIP1 / Fold change vs veh, ARFIP1 / RFU, FAM179B / Fold change vs veh, FAM179B / RFU, BCL10 / Fold change vs veh, BCL10 / RFU, UHRF1BP1L / Fold change vs veh, UHRF1BP1L / RFU, BET1 / Fold change vs veh, BET1 / RFU, CNOT2 / Fold change vs veh, CNOT2 / RFU, ZNF268 / Fold change vs veh, ZNF268 / Fold change vs veh, ZNF507 / RFU, DGCR2 / Fold change vs veh, DGCR2 / RFU, WDSUB1 / Fold change vs veh, WDSUB1 / Fold change vs veh, HSP90B1 /// MIR3652 / RFU, ADSS / Fold change vs veh, ADSS / RFU, GK / Fold change vs veh, GK / RFU, ZNF148 / Fold change vs veh, ZNF148 / RFU, TAF9 / Fold change vs veh, TAF9 / RFU, SLC1A5 / Fold change vs veh, SLC1A5 / RFU, SLMO2 / Fold change vs veh, SLMO2 / RFU, ABCC4 / Fold change vs veh, ABCC4 / RFU, LOC101060439 /// RAP1B / Fold change vs veh, LOC101060439 /// RAP1B / RFU, RFX7 / Fold change vs veh, RFX7 / RFU, GTPBP10 / Fold change vs veh, GTPBP10 / RFU, CNEP1R1 / Fold change vs veh, CNEP1R1 / RFU, BIVM-ERCC5 /// ERCC5 / Fold change vs veh, BIVM-ERCC5 /// ERCC5 / RFU, ILF3 / Fold change vs veh, ILF3 / RFU 11762660_at / Fold change /veh 11762660_at / RFU VCAN (11757783_s_at) / Fold change /veh VCAN (11757783_s_at) / RFU DDX43 (11728927_at) / Fold change /veh DDX43 (11728927_at) / RFU KRT8 (11758188_x_at) / Fold change /veh KRT8 (11758188_x_at) / RFU NKD1 (11759106_at) / Fold change /veh NKD1 (11759106_at) / RFU SRD5A1 (11742802_a_at) / Fold change /veh SRD5A1 (11742802_a_at) / RFU TPSAB1 /// TPSB2 (11721975_s_at) / Fold change /veh TPSAB1 /// TPSB2 (11721975_s_at) / RFU GSTM3 (11746129_a_at) / Fold change /veh GSTM3 (11746129_a_at) / RFU IL23R (11737362_x_at) / Fold change /veh IL23R (11737362_x_at) / RFU TMEM51 (11727254_a_at) / Fold change /veh TMEM51 (11727254_a_at) / RFU PIWIL2 (11732686_x_at) / Fold change /veh PIWIL2 (11732686_x_at) / RFU ORM1 (11744905_x_at) / Fold change /veh ORM1 (11744905_x_at) / RFU CCDC152 (11743942_at) / Fold change /veh CCDC152 (11743942_at) / RFU ECM1 (11717891_a_at) / Fold change /veh ECM1 (11717891_a_at) / RFU IL23R (11748794_a_at) / Fold change /veh IL23R (11748794_a_at) / RFU TNFAIP8L3 (11732012_x_at) / Fold change /veh TNFAIP8L3 (11732012_x_at) / RFU MBOAT4 (11741988_at) / Fold change /veh MBOAT4 (11741988_at) / RFU 11764193_at / Fold change /veh 11764193_at / RFU TMEM53 (11763286_at) / Fold change /veh TMEM53 (11763286_at) / RFU MAGEB2 (11727129_at) / Fold change /veh MAGEB2 (11727129_at) / RFU TMEM200A (11744735_a_at) / Fold change /veh TMEM200A (11744735_a_at) / RFU CCDC152 (11751479_a_at) / Fold change /veh CCDC152 (11751479_a_at) / RFU FAM211A (11726209_a_at) / Fold change /veh FAM211A (11726209_a_at) / RFU RGS16 (11746705_a_at) / Fold change /veh RGS16 (11746705_a_at) / RFU VCAN (11755009_s_at) / Fold change /veh VCAN (11755009_s_at) / RFU RHOB (11743442_s_at) / Fold change /veh RHOB (11743442_s_at) / RFU RGS16 (11720943_a_at) / Fold change /veh RGS16 (11720943_a_at) / RFU RGS16 (11720944_at) / Fold change /veh RGS16 (11720944_at) / RFU, VPS4B / Fold change vs veh, VPS4B / RFU, CREB1 / Fold change vs veh, CREB1 / RFU, DNAJC13 / Fold change vs veh, DNAJC13 / RFU, GNAQ / Fold change vs veh, GNAQ / RFU, CDK5R1 / Fold change vs veh, CDK5R1 / RFU, ZRANB3 / Fold change vs veh, ZRANB3 / RFU, CUL4A / Fold change vs veh, CUL4A / RFU, CCNY / Fold change vs veh, CCNY / RFU, UFL1 / Fold change vs veh, UFL1 / RFU, COG3 / Fold change vs veh, COG3 / RFU, DIAPH2 / Fold change vs veh, DIAPH2 / RFU, SKA2 / Fold change vs veh, SKA2 / RFU, AFF3 / Fold change vs veh, AFF3 / RFU, LMF1 / Fold change vs veh, LMF1 / RFU, IPO11 / Fold change vs veh, IPO11 / RFU, DFFB / Fold change vs veh, DFFB / RFU, FOXP1 / Fold change vs veh, FOXP1 / RFU, CARD8 / Fold change vs veh, CARD8 / RFU, STRN3 / Fold change vs veh, STRN3 / RFU, ADK / Fold change vs veh, ADK / RFU, RASSF2 / Fold change vs veh, RASSF2 / RFU, WIPF1 / Fold change vs veh, WIPF1 / RFU, LARP1B / Fold change vs veh, LARP1B / RFU, RASA1 / Fold change vs veh, RASA1 / RFU, RB1 / Fold change vs veh, RB1 / RFU, PPFIA1 / Fold change vs veh, PPFIA1 / RFU, MAT2A / Fold change vs veh, MAT2A / RFU, CCT5 / Fold change vs veh, CCT5 / RFU, WDR92 / Fold change vs veh, WDR92 / RFU, CUX1 / Fold change vs veh, CUX1 / RFU, TTC7A / Fold change vs veh, TTC7A / RFU, TMEM135 / Fold change vs veh, TMEM135 / RFU, DEPTOR / Fold change vs veh, DEPTOR / RFU, CPM / Fold change vs veh, CPM / RFU, DNAJB6 / Fold change vs veh, DNAJB6 / RFU, CACNA2D3 / Fold change vs veh, CACNA2D3 / RFU, DTX4 / Fold change vs veh, DTX4 / RFU, TFCP2 / Fold change vs veh, TFCP2 / RFU, GMCL1 /// GMCL1P1 / Fold change vs veh, GMCL1 /// GMCL1P1 / RFU, AEBP2 / Fold change vs veh, AEBP2 / RFU, SNHG1 /// SNORD22 /// SNORD25 /// SNORD26 /// SNORD27 /// SNORD28 /// SNORD29 /// SNORD31 / Fold change vs veh, SNHG1 /// SNORD22 /// SNORD25 /// SNORD26 /// SNORD27 /// SNORD28 /// SNORD29 /// SNORD31 / Fold change (Aza/veh), C12orf56 (ProbeSet 11735607_a_at) / Fold change (ACY-1035/veh), C12orf56 (ProbeSet 11735607_a_at) / Fold change (Aza/veh), FGFR1OP (ProbeSet 11751329_s_at) / Fold change (ACY-1035/veh), FGFR1OP (ProbeSet 11751329_s_at) / Fold change (Aza/veh), VPS36 (ProbeSet 11739960_a_at) / Fold change (ACY-1035/veh), VPS36 (ProbeSet 11739960_a_at) / RFU SYPL1 (11715823_x_at) / Fold change /veh SYPL1 (11715823_x_at) / RFU IGFBP7 (11715501_s_at) / Fold change /veh IGFBP7 (11715501_s_at) / RFU REEP3 (11722064_at) / Fold change /veh REEP3 (11722064_at) / RFU IGLL1 (11728026_x_at) / Fold change /veh IGLL1 (11728026_x_at): dose or concentration left out as unconfirmed
Details: ProbeSet 11723475_a_at; LIST B

In the case of `Nc1ccc(-c2cccs2)cc1NC(=O)c1ccc2c(c1)cc(C1CC1)n2CCN1CCOCC1` [ACY-1035], the “Fold change vs veh, TRMT61B” value is reported as 0.88.

— article PMC5218480 (PLoS ONE, 2017)
